Results as given in US20210113518A1, “Composition And Use Thereof Against Drugs Induced Phototoxicity” (AC BIOSCIENCE SA, priority 2018, published 2021).
Values after ≈ are worked out from the molar mass of the structure shown.

Columns and labels:
Assay type in all cases: cell-based
human neutrophils [1] = assay: Neutrophils degranulation assessed by myeloperoxidase (MPO) release, fMLP stimulation, MPO enzyme immunoassay; settings: fMLP 45 minutes at 37° C.
Description: Neutrophils were stimulated with formyl-methionyl-leucyl-phenylalanine for 45 minutes at 37° C. MPO released from neutrophils were assayed by using an MPO enzyme immunoassay. [table]

Balb/c 3T3 fibroblasts = assay: Norfloxacin 3T3 phototoxicity test with or without DHQ treatment (Neutral Red uptake); settings: for Photoprotective effect against norfloxacin phototoxicity: increasing concentrations in treatment medium, UVA
Description: The phototoprotective potential of Dihydroquercetin was assessed using a method based on Norfloxacin phototoxicity test on fibroblasts […]. […] The study was aimed at evaluating the photoprotective potential of one test item, dihydroquercetin, against the deleterious effects of UVA exposure in presence of phototoxic substances such as Norfloxacin or chlorpromazin. Briefly, Balb/c 3T3 fibroblasts were maintained in culture for 48 h for formation of monolayers. Norfloxacin 3T3 phototoxicity test was performed in presence or absence of DHQ treatment in different conditions. After another 24 h incubation period, cell viability was determined by Neutral Red uptake. For each condition, cell viability was expressed as percentage relative to untreated solvent controls. Then the dose-response curves (at the EC50 level) obtained for Norfloxacin with or without DHQ treatment was compared to assess DHQ photoprotective potential.

NIH-3T3 fibroblasts = assay: Chlorpromazine (CPZ)-induced cell phototoxicity under UVA, protective effect
Excerpt: Chlorpromazine (CPZ) is a neuroleptic drug widely used in medicine because of its tranquilizing and antipsychotic properties. CPZ often causes side effects including cutaneous photosensitization and ocular damage.

human neutrophils [2] = assay: Polymorphonuclear neutrophils oxidative burst, ROS production by chemiluminescence (PMA activation); settings: neutrophils primed with TNF-α, activation by 100 ng/ml PMA; luminol chemiluminescence; FIG. 5
Description: ROS production is measured using a chemiluminescence standard procedure: briefly, one hundred microliters of human neutrophils (4×10^6/mL) were primed with TNF-α at 37° C. for 25 minutes. 100 μL luminol (1 μM final concentration) and HRP (62.5 U/mL final concentration) in HBSS were added, and 150-μL aliquots were transferred to a prewarmed 96-well luminometer plate. Light emission was recorded by a Berthold MicroLumat Plus luminometer (Berthold Technologies, Hartfordshire, United Kingdom) (data output is in relative light units per second)

CC(C)=CCC[C@](C)(O)C1CC=C(C)CC1 (stereo partly shown) [Bisabolol] gave an MPO release (human neutrophils [1]; Bisabolol 20 μM) of 810 U/mL, an MPO release (human neutrophils [1]; Bisabolol 40 μM) of 500 U/mL and an MPO release (human neutrophils [1]; Bisabolol 100 μM) of 250 U/mL. For the same compound, the MPO release (human neutrophils [1]; Bisabolol 200 μM) was 248 U/mL.
O=C1c2c(O)cc(O)cc2O[C@H](c2ccc(O)c(O)c2)[C@H]1O [DHQ, Dihydroquercetin] was tested, and the “Photoprotective effect against norfloxacin phototoxicity” value (Balb/c 3T3 fibroblasts) was “Dose-dependent photoprotective effect”, the “Protection against phototoxicity induced by chlorpromazine+UVA” value (NIH-3T3 fibroblasts; NIH-3T3 fibroblasts, FIG. 4) was “efficiently protects” and the “Effect on reactive oxygen species (ROS) production” value (human neutrophils [2]) was “Inhibitory effect”.
CCn1cc(C(=O)O)c(=O)c2cc(F)c(N3CCNCC3)cc21 [NFX, norfloxacin] gave an EC50 (Balb/c 3T3 fibroblasts; Mus musculus, BALB/c3T3, light or radiation study, No DHQ treatment, UVA exposure, read-out: NFX EC 50) of 55 µg/mL (≈ 172 µM).
Nc1ccc(C(=O)O)cc1 [PABA, para-aminobenzoic acid] was tested, and the “Photoprotective effect against norfloxacin phototoxicity” value (Balb/c 3T3 fibroblasts) was “no effect”.
Work on CN(C)CCCN1c2ccccc2Sc2ccc(Cl)cc21 [CPZ, Chlorpromazine, reference compound] yielded an IC50 (NIH-3T3 fibroblasts; Mus musculus, NIH3T3, light or radiation study, control experiment (no treatment), UVA) of 0.33 µg/mL (≈ 1.03 µM).
